From ChEMBL document CHEMBL3991601, “The target landscape of clinical kinase drugs” (Science, 2017)
Activity calls are given as the source filed them. Cut-off read from the data, not from the text of the source, for most assays here: actives have a measured Kd and inactives only a lower limit.

Key:
[1] = target: Tyrosine-protein kinase Fer (Homo sapiens, UniProt P16591)
[2] = target: Platelet-derived growth factor receptor beta (Homo sapiens, UniProt P09619)
[3] = target: T1, Probable ATP-dependent RNA helicase DDX6 (Homo sapiens, UniProt P26196)
T1 sequence (P26196 whole entry): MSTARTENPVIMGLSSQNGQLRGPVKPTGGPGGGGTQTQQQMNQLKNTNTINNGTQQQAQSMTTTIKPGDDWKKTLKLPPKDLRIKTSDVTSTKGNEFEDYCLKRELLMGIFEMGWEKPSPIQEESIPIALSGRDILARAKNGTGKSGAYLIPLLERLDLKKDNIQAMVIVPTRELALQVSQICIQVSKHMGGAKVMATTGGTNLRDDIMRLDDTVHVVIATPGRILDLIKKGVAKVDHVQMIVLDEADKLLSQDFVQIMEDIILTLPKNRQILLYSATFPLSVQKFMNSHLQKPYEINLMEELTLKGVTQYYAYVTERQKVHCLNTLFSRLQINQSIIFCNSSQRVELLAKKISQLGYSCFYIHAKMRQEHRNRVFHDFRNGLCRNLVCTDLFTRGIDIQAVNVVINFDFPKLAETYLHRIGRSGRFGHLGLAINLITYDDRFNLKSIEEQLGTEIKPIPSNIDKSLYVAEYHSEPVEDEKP

[4] = target: Ribosomal protein S6 kinase alpha-3 (Homo sapiens, UniProt P51812)
Sequence of Ribosomal protein S6 kinase alpha-3 (P51812 whole entry): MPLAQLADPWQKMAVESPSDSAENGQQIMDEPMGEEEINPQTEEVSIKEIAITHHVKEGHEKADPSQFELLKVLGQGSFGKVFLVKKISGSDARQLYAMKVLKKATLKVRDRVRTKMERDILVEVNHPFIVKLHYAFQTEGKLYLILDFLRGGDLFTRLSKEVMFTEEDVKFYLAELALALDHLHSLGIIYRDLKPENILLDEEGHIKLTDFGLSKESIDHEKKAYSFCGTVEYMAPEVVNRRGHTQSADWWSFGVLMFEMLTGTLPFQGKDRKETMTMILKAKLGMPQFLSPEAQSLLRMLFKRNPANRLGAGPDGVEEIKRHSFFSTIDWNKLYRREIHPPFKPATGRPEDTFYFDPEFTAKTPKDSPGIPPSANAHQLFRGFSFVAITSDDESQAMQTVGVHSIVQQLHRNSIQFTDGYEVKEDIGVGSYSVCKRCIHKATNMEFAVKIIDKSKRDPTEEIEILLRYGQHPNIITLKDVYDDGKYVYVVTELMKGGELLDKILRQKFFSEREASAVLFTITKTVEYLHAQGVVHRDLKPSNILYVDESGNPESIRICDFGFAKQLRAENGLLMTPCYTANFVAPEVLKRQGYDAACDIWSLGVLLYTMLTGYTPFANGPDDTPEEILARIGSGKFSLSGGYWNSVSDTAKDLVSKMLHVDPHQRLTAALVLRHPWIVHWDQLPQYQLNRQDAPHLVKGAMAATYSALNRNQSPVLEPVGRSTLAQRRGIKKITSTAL

[5] = target: Serine/threonine-protein kinase N2 (Homo sapiens, UniProt Q16513)
Sequence of Serine/threonine-protein kinase N2 (Q16513 whole entry): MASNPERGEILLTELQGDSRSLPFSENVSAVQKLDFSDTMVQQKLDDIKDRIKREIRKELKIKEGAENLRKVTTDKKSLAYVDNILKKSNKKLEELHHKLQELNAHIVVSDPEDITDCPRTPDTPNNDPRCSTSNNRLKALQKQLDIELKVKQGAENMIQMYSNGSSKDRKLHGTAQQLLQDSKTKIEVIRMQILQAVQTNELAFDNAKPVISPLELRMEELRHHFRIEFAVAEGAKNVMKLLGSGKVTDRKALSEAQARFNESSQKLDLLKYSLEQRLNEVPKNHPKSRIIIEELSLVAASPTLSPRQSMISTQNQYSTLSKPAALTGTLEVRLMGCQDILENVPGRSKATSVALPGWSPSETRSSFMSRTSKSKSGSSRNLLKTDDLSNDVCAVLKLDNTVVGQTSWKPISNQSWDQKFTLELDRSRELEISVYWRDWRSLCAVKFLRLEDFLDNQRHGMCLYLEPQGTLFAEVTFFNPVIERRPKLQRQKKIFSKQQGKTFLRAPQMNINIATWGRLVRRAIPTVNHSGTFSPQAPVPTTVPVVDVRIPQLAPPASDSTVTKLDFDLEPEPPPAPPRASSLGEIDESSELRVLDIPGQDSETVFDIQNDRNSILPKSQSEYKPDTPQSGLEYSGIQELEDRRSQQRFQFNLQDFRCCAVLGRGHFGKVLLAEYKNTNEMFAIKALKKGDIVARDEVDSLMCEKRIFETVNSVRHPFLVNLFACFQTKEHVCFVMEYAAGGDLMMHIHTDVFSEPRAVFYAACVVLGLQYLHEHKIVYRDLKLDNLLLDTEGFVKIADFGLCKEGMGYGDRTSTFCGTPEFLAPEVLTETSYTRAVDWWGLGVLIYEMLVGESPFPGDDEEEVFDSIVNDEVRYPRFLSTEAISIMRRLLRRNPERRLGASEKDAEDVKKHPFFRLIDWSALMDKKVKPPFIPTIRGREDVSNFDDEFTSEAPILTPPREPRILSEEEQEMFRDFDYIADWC

Ephrin type-B receptor 3 = target: T2, Ephrin type-B receptor 3 (Homo sapiens, UniProt P54753)
T2 sequence (P54753 whole entry): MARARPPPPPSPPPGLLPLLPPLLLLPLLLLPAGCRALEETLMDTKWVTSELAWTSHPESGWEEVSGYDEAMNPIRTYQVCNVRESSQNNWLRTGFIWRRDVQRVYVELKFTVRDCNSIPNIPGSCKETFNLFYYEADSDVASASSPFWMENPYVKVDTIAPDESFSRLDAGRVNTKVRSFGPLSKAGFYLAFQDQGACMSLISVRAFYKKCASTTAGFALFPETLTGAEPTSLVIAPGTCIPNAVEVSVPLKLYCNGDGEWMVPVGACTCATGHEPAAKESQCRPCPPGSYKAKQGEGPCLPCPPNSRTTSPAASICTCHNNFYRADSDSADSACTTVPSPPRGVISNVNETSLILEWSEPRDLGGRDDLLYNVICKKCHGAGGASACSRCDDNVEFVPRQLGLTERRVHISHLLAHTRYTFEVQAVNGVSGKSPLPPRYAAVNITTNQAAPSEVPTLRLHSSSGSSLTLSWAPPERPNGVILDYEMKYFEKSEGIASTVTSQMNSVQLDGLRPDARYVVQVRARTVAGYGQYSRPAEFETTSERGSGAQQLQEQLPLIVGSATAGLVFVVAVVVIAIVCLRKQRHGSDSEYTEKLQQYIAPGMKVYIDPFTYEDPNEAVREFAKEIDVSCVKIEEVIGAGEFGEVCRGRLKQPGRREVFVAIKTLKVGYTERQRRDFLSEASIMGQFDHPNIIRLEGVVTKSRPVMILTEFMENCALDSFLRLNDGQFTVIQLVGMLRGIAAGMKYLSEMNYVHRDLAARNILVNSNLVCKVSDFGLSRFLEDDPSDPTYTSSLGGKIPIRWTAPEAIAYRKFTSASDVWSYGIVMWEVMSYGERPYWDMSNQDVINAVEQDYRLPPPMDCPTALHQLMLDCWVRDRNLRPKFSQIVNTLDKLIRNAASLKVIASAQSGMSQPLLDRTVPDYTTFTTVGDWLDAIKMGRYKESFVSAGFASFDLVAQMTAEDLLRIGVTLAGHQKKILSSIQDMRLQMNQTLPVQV

[6] = target: AP2-associated protein kinase 1 (Homo sapiens, UniProt Q2M2I8)
Sequence of AP2-associated protein kinase 1 (Q2M2I8 whole entry): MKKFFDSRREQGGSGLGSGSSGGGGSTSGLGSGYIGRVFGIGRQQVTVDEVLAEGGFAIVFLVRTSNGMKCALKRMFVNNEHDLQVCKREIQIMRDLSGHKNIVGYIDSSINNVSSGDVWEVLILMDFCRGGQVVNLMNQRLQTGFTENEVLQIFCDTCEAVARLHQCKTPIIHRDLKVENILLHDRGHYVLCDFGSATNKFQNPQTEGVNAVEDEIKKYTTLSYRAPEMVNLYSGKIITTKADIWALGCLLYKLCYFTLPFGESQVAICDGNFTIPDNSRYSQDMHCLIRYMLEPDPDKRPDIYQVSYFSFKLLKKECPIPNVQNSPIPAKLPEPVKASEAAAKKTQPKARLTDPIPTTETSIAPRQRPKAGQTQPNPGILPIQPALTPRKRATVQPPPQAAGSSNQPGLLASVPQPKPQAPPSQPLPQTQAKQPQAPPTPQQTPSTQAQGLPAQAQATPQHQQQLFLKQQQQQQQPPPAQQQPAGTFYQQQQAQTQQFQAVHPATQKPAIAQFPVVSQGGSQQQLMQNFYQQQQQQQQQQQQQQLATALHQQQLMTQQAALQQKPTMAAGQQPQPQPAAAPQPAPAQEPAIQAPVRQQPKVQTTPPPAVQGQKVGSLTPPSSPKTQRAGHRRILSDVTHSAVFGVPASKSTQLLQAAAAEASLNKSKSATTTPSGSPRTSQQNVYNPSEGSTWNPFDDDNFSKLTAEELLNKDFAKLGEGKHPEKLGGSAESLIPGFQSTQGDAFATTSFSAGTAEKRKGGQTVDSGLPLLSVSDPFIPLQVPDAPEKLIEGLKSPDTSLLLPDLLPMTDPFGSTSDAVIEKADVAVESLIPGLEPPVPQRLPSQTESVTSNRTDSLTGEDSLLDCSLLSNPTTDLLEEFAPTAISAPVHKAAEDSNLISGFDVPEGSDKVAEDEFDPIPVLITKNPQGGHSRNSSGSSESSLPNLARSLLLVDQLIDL

[7] = target: Mitogen-activated protein kinase kinase kinase 1 (Homo sapiens, UniProt Q13233)
[8] = target: Serine/threonine-protein kinase SIK3 (Homo sapiens, UniProt Q9Y2K2)
Sequence of Serine/threonine-protein kinase SIK3 (Q9Y2K2 whole entry): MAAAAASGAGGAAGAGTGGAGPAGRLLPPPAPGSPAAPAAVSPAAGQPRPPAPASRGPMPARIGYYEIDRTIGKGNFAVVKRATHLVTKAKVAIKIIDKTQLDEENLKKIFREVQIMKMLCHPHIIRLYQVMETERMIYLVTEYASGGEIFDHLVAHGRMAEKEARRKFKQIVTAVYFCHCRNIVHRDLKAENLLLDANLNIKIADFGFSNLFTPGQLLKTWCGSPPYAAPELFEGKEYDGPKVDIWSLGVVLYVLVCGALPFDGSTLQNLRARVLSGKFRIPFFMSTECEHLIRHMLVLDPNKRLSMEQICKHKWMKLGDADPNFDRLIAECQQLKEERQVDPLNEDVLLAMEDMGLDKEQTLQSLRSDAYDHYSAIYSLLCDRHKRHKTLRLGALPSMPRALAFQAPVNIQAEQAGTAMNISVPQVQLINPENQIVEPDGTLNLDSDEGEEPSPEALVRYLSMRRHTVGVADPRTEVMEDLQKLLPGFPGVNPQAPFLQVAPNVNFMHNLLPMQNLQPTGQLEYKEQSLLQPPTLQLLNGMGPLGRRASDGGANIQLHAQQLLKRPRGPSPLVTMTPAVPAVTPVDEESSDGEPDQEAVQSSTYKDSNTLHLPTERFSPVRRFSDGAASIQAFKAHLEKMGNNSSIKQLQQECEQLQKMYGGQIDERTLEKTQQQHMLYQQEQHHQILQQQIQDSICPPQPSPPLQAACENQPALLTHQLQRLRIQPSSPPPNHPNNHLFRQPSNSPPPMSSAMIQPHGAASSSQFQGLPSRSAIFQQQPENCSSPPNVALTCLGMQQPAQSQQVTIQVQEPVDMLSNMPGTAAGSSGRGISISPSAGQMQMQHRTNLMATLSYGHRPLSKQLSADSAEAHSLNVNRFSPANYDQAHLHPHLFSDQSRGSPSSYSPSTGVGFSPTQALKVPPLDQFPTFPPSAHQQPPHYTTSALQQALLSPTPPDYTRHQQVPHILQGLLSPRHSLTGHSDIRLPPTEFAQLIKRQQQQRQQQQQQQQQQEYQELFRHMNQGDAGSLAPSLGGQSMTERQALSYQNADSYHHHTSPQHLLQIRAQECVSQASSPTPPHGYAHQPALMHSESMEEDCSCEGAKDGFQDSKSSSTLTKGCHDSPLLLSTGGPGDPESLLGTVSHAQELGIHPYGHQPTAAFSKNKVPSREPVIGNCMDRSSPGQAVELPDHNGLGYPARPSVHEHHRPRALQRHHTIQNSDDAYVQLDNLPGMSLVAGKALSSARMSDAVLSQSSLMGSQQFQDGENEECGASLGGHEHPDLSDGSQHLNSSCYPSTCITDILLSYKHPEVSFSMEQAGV

[9] = target: Protein kinase C beta type (Homo sapiens, UniProt P05771)
[10] = target: Serine/threonine-protein kinase N1 (Homo sapiens, UniProt Q16512)
[11] = target: Myosin light chain kinase, smooth muscle (Homo sapiens, UniProt Q15746)
[12] = target: T3, Serine/threonine-protein kinase D3 (Homo sapiens, UniProt O94806)
T3 sequence (O94806 whole entry): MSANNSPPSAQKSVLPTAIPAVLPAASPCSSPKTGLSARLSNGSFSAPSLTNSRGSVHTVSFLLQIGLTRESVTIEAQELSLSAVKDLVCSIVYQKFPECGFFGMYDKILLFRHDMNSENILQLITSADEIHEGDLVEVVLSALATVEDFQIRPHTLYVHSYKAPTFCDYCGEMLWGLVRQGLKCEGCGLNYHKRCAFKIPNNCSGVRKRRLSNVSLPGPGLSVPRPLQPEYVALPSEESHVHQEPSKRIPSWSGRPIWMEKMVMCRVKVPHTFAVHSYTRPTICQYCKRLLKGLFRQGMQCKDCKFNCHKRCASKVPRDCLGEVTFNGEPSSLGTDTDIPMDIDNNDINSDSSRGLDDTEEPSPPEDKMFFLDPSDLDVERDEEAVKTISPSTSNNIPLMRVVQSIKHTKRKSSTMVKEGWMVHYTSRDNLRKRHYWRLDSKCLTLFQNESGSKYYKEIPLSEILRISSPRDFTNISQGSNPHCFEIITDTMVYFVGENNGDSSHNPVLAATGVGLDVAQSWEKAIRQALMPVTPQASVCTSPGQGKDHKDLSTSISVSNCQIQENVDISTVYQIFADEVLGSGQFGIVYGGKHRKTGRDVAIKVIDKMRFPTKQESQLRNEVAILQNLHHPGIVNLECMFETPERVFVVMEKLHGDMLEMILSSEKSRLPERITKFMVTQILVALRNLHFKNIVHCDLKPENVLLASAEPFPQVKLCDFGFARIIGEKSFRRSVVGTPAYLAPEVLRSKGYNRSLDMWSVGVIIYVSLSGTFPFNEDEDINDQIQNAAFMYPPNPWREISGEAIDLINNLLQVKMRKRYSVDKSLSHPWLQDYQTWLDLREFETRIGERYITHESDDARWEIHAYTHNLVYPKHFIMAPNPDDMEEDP

LIM domain kinase 1 = LIM domain kinase 1 (Homo sapiens, UniProt P53667)
Sequence of LIM domain kinase 1 (P53667 whole entry, the tested form may be a part): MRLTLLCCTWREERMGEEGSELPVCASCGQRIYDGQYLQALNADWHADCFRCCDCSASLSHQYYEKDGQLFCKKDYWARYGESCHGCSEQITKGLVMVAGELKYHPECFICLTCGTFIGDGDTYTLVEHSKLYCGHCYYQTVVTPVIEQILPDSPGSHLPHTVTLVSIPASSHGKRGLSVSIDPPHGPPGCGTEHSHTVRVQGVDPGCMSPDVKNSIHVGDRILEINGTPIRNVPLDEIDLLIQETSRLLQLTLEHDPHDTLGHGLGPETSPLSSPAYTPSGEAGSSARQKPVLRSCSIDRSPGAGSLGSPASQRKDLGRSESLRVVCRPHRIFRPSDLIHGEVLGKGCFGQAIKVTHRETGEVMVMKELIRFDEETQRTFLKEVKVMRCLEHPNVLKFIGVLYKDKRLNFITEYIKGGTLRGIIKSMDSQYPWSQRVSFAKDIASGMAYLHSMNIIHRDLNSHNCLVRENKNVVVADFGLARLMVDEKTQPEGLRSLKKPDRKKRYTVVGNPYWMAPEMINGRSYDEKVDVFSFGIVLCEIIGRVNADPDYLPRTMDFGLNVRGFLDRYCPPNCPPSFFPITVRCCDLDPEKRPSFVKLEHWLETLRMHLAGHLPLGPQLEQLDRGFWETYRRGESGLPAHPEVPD
Note: in the data inactive means no Kd found up to 30 µM.

Row | Kd [1] | Kd [2] | Kd [3] | Kd [4] | Kd [5] | Kd (Ephrin type-B receptor 3) | Kd [6] | Kd [7] | Kd [8] | Kd [9] | Kd [10] | Kd [11] | Kd [12] | Kd (LIM domain kinase 1) | Structure (SMILES)
1 | > 30 µM (inactive) | > 30 µM (inactive) | > 30 µM (inactive) | > 30 µM (inactive) | > 30 µM (inactive) | > 30 µM (inactive) | > 30 µM (inactive) | > 30 µM (inactive) | > 30 µM (inactive) | > 30 µM (inactive) | > 30 µM (inactive) | > 30 µM (inactive) | > 30 µM (inactive) | > 30 µM (inactive) | COc1cc(Nc2ncc(F)c(Nc3ccc4c(n3)N(COP(=O)(O)O)C(=O)C(C)(C)O4)n2)cc(OC)c1OC [FOSTAMATINIB]
2 | > 30 µM (inactive) | > 30 µM (inactive) | > 30 µM (inactive) | > 30 µM (inactive) | > 30 µM (inactive) | > 30 µM (inactive) | > 30 µM (inactive) | > 30 µM (inactive) | > 30 µM (inactive) | > 30 µM (inactive) | > 30 µM (inactive) | > 30 µM (inactive) | > 30 µM (inactive) | > 30 µM (inactive) | COc1ccc2c(OCc3nnc4ccc(-c5ccccc5)nn34)ccnc2c1 [AMG-208]
3 | > 30 µM (inactive) | > 30 µM (inactive) | > 30 µM (inactive) | > 30 µM (inactive) | > 30 µM (inactive) | > 30 µM (inactive) | > 30 µM (inactive) | > 30 µM (inactive) | > 30 µM (inactive) | > 30 µM (inactive) | > 30 µM (inactive) | > 30 µM (inactive) | > 30 µM (inactive) | > 30 µM (inactive) | O=c1[nH]c([C@@H]2CCCN2)nc2c1oc1ccc(Cl)cc12

The remaining lines, values behind:

Row | Structure (SMILES) | Kd [1] | Kd [2] | Kd [3] | Kd [4] | Kd [5] | Kd (Ephrin type-B receptor 3) | Kd [6] | Kd [7] | Kd [8] | Kd [9] | Kd [10] | Kd [11] | Kd [12] | Kd (LIM domain kinase 1)
4 | C=CC(=O)Nc1cc(Nc2nccc(-c3cn(C)c4ccccc34)n2)c(OC)cc1N(C)CCN(C)C [OSIMERTINIB] | > 30 µM (inactive) | > 30 µM (inactive) | > 30 µM (inactive) | > 30 µM (inactive) | > 30 µM (inactive) | > 30 µM (inactive) | > 30 µM (inactive) | > 30 µM (inactive) | > 30 µM (inactive) | > 30 µM (inactive) | > 30 µM (inactive) | > 30 µM (inactive) | > 30 µM (inactive) | > 30 µM (inactive)
5 | CC[C@@](C)(Nc1ccnc(-c2c[nH]c3ncccc23)n1)C(=O)NCC(F)(F)F [DECERNOTINIB] | > 30 µM (inactive) | > 30 µM (inactive) | > 30 µM (inactive) | > 30 µM (inactive) | > 30 µM (inactive) | > 30 µM (inactive) | 4.25 µM (active) | > 30 µM (inactive) | > 30 µM (inactive) | 0.426 µM (active) | 49.8 µM (active) | > 30 µM (inactive) | > 30 µM (inactive) | > 30 µM (inactive)
